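Briefly, cells in 96-well plates were exposed to five compound concentrations for 48 h, and endpoints were estimated by linear interpolation. TGI: total growth inhibition.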
How the values were obtained:
Assay in all cases: NCI anticancer screen, dose series, 48 h
MDA-MB-231 breast = system: MDA-MB-231 breast
U251 CNS = system: U251 CNS
T-47D breast = system: T-47D breast
SNB-75 CNS = system: SNB-75 CNS
M14 melanoma = system: M14 melanoma
HOP-62 NSCLC = system: HOP-62 NSCLC
KM12 colon = system: KM12 colon
HS 578T breast = system: HS 578T breast
SN12C renal = system: SN12C renal
SK-MEL-2 melanoma = system: SK-MEL-2 melanoma
HL-60(TB) leukemia = system: HL-60(TB) leukemia
MOLT-4 leukemia = system: MOLT-4 leukemia
OVCAR-4 ovarian = system: OVCAR-4 ovarian
SW-620 colon = system: SW-620 colon
NCI-H460 lung = system: NCI-H460 lung
EKVX NSCLC = system: EKVX NSCLC
MDA-MB-435 = system: MDA-MB-435
786-0 renal = system: 786-0 renal
NCI/ADR-RES ovarian = system: NCI/ADR-RES ovarian
OVCAR-8 ovarian = system: OVCAR-8 ovarian
PC-3 prostate = system: PC-3 prostate
SK-MEL-5 melanoma = system: SK-MEL-5 melanoma
NCI-H23 lung = system: NCI-H23 lung
OVCAR-3 ovarian = system: OVCAR-3 ovarian
HCC-2998 colon = system: HCC-2998 colon
SF-268 CNS = system: SF-268 CNS
HCT-116 colon = system: HCT-116 colon
CCRF-CEM leukemia = system: CCRF-CEM leukemia
RPMI-8226 leukemia = system: RPMI-8226 leukemia
ACHN renal = system: ACHN renal
SNB-19 CNS = system: SNB-19 CNS
SK-OV-3 ovarian = system: SK-OV-3 ovarian
UACC-257 melanoma = system: UACC-257 melanoma
TK-10 renal = system: TK-10 renal
SK-MEL-28 melanoma = system: SK-MEL-28 melanoma
MDA-N = system: MDA-N
SR leukemia = system: SR leukemia
UO-31 renal = system: UO-31 renal
HT29 colon = system: HT29 colon
A549 NSCLC = system: A549 NSCLC
SF-295 CNS = system: SF-295 CNS
HCT-15 colon = system: HCT-15 colon
BT-549 breast = system: BT-549 breast
COLO 205 colon = system: COLO 205 colon
DU-145 prostate = system: DU-145 prostate
OVCAR-5 ovarian = system: OVCAR-5 ovarian
NCI-H522 lung = system: NCI-H522 lung
CAKI-1 renal = system: CAKI-1 renal
RXF 393 renal = system: RXF 393 renal
K-562 leukemia = system: K-562 leukemia
MCF7 breast = system: MCF7 breast
A498 renal = system: A498 renal
HOP-92 NSCLC = system: HOP-92 NSCLC
MALME-3M melanoma = system: MALME-3M melanoma
IGROV1 ovarian = system: IGROV1 ovarian
SF-539 CNS = system: SF-539 CNS
LOX IMVI melanoma = system: LOX IMVI melanoma
UACC-62 melanoma = system: UACC-62 melanoma
NCI-H226 lung = system: NCI-H226 lung

Question: `OCCO[P+]1(OCCO)n2c3ccc2C(c2ccccc2)=C2C=CC(=N2)C(c2ccccc2)=c2ccc(n21)=C(c1ccccc1)C1=NC(=C3c2ccccc2)C=C1` was tested. Which TGI (MDA-MB-231 breast) did it give?
Answer: The TGI was 0.275 µM.

Question: And the TGI (U251 CNS)?
Answer: Its TGI is 1.25 µM.

Question: And the TGI (T-47D breast)?
Answer: The TGI was 2.09 µM.

Question: What about the TGI (SNB-75 CNS) of the same compound?
Answer: The TGI was 0.273 µM.

Question: And the TGI (M14 melanoma)?
Answer: Its TGI is 0.278 µM.

Question: And the TGI (HOP-62 NSCLC)?
Answer: Its TGI is 1.72 µM.

Question: And the TGI (KM12 colon)?
Answer: Its TGI is 0.21 µM.

Question: What about the TGI (HS 578T breast) of the same compound?
Answer: Its TGI is 0.206 µM.

Question: What about the TGI (SN12C renal) of the same compound?
Answer: The TGI was 0.125 µM.

Question: And the TGI (SK-MEL-2 melanoma)?
Answer: Its TGI is 0.0438 µM.

Question: And the TGI (HL-60(TB) leukemia)?
Answer: Its TGI is 0.222 µM.

Question: And the TGI (MOLT-4 leukemia)?
Answer: Its TGI is 0.701 µM.

Question: And the TGI (OVCAR-4 ovarian)?
Answer: Its TGI is 2.17 µM.

Question: What about the TGI (SW-620 colon) of the same compound?
Answer: Its TGI is 1.09 µM.

Question: And the TGI (NCI-H460 lung)?
Answer: The TGI was 1.04 µM.

Question: And the TGI (EKVX NSCLC)?
Answer: The TGI was 1.04 µM.

Question: And the TGI (MDA-MB-435)?
Answer: Its TGI is 0.132 µM.

Question: What about the TGI (786-0 renal) of the same compound?
Answer: Its TGI is 1.28 µM.

Question: And the TGI (NCI/ADR-RES ovarian)?
Answer: The TGI was 41.4 µM.

Question: What about the TGI (OVCAR-8 ovarian) of the same compound?
Answer: The TGI was 0.17 µM.

Question: And the TGI (PC-3 prostate)?
Answer: Its TGI is 1.59 µM.

Question: And the TGI (SK-MEL-5 melanoma)?
Answer: The TGI was 0.164 µM.

Question: What about the TGI (NCI-H23 lung) of the same compound?
Answer: The TGI was 0.327 µM.

Question: And the TGI (OVCAR-3 ovarian)?
Answer: The TGI was 1.34 µM.

Question: And the TGI (HCC-2998 colon)?
Answer: The TGI was 0.327 µM.

Question: What about the TGI (SF-268 CNS) of the same compound?
Answer: Its TGI is 2.15 µM.

Question: What about the TGI (HCT-116 colon) of the same compound?
Answer: The TGI was 0.203 µM.

Question: And the TGI (CCRF-CEM leukemia)?
Answer: The TGI was 0.252 µM.

Question: What about the TGI (RPMI-8226 leukemia) of the same compound?
Answer: The TGI was 0.0657 µM.

Question: And the TGI (ACHN renal)?
Answer: Its TGI is 1.1 µM.

Question: What about the TGI (SNB-19 CNS) of the same compound?
Answer: Its TGI is 1.96 µM.

Question: And the TGI (SK-OV-3 ovarian)?
Answer: Its TGI is 0.569 µM.

Question: What about the TGI (UACC-257 melanoma) of the same compound?
Answer: The TGI was 0.0545 µM.

Question: What about the TGI (TK-10 renal) of the same compound?
Answer: The TGI was 1.5 µM.

Question: What about the TGI (SK-MEL-28 melanoma) of the same compound?
Answer: The TGI was 0.466 µM.

Question: And the TGI (MDA-N)?
Answer: The TGI was 0.092 µM.

Question: And the TGI (SR leukemia)?
Answer: Its TGI is 0.294 µM.

Question: What about the TGI (UO-31 renal) of the same compound?
Answer: The TGI was 4.06 µM.

Question: And the TGI (HT29 colon)?
Answer: Its TGI is 3.36 µM.

Question: What about the TGI (A549 NSCLC) of the same compound?
Answer: The TGI was 1.93 µM.

Question: And the TGI (SF-295 CNS)?
Answer: The TGI was 0.513 µM.

Question: And the TGI (HCT-15 colon)?
Answer: Its TGI is 3.59 µM.

Question: What about the TGI (BT-549 breast) of the same compound?
Answer: Its TGI is 0.305 µM.

Question: And the TGI (COLO 205 colon)?
Answer: The TGI was 0.0651 µM.

Question: What about the TGI (DU-145 prostate) of the same compound?
Answer: The TGI was 1.74 µM.

Question: What about the TGI (OVCAR-5 ovarian) of the same compound?
Answer: The TGI was 1.28 µM.

Question: What about the TGI (NCI-H522 lung) of the same compound?
Answer: Its TGI is 0.2 µM.

Question: And the TGI (CAKI-1 renal)?
Answer: The TGI was 2.59 µM.

Question: And the TGI (RXF 393 renal)?
Answer: Its TGI is 0.563 µM.

Question: And the TGI (K-562 leukemia)?
Answer: Its TGI is 18 µM.

Question: What about the TGI (MCF7 breast) of the same compound?
Answer: The TGI was over 100 µM.

Question: What about the TGI (A498 renal) of the same compound?
Answer: Its TGI is 1.49 µM.

Question: What about the TGI (HOP-92 NSCLC) of the same compound?
Answer: The TGI was 0.399 µM.

Question: What does the source list for `CCOC(=O)/C(=C\c1ccc(F)cc1)C(C)=O`?
Answer: TGI (MDA-MB-231 breast): 52 µM; TGI (U251 CNS): 40.7 µM; TGI (T-47D breast): 63.9 µM; TGI (SNB-75 CNS): 74.2 µM; TGI (M14 melanoma): 60.9 µM; TGI (HOP-62 NSCLC): > 100 µM; TGI (KM12 colon): 69 µM; TGI (HS 578T breast): > 100 µM; TGI (SN12C renal): > 100 µM; TGI (SK-MEL-2 melanoma): 41.2 µM; TGI (HL-60(TB) leukemia): 53.2 µM; TGI (MOLT-4 leukemia): 89 µM; TGI (OVCAR-4 ovarian): > 100 µM; TGI (SW-620 colon): > 100 µM; TGI (NCI-H460 lung): 97.4 µM; TGI (EKVX NSCLC): 83.6 µM; TGI (MDA-MB-435): > 100 µM; TGI (786-0 renal): 49.4 µM; TGI (NCI/ADR-RES ovarian): > 100 µM; TGI (MALME-3M melanoma): 43.1 µM; TGI (OVCAR-8 ovarian): 94.6 µM; TGI (PC-3 prostate): 38.2 µM; TGI (SK-MEL-5 melanoma): 47.1 µM; TGI (NCI-H23 lung): 46 µM; TGI (OVCAR-3 ovarian): > 100 µM; TGI (IGROV1 ovarian): 38.9 µM; TGI (SF-539 CNS): > 100 µM; TGI (HCC-2998 colon): 26.6 µM; TGI (SF-268 CNS): > 100 µM; TGI (HCT-116 colon): 91.8 µM; TGI (CCRF-CEM leukemia): > 100 µM; TGI (RPMI-8226 leukemia): 53 µM; TGI (ACHN renal): 50.7 µM; TGI (SNB-19 CNS): > 100 µM; TGI (SK-OV-3 ovarian): > 100 µM; TGI (UACC-257 melanoma): 44.7 µM; TGI (TK-10 renal): 52.3 µM; TGI (MDA-N): > 100 µM; TGI (SR leukemia): 64 µM; TGI (UO-31 renal): 31.2 µM; TGI (HT29 colon): > 100 µM; TGI (A549 NSCLC): > 100 µM; TGI (SF-295 CNS): 79.3 µM; TGI (HCT-15 colon): 44.2 µM; TGI (BT-549 breast): 51.4 µM; TGI (COLO 205 colon): > 100 µM; TGI (DU-145 prostate): 56.8 µM; TGI (OVCAR-5 ovarian): > 100 µM; TGI (LOX IMVI melanoma): 36.7 µM; TGI (NCI-H522 lung): 29.5 µM; TGI (CAKI-1 renal): > 100 µM; TGI (UACC-62 melanoma): 38.1 µM; TGI (RXF 393 renal): 34.8 µM; TGI (NCI-H226 lung): 75.2 µM; TGI (K-562 leukemia): > 100 µM; TGI (MCF7 breast): 96.6 µM; TGI (A498 renal): 34.9 µM; TGI (HOP-92 NSCLC): 44.3 µM

Source: PubChem BioAssay (NCI)
